From patent publication US7087392B2, “Antiproliferative SgK reagents and methods” (The Regents of the University of California, priority 1999, dated 2006)
Numbering of substitutions follows the chain as printed. In names and notes the source's numbering stands.

Legend:
Sgk and Erk/MAPK = experiment: Subcellular localization of Sgk and Erk/MAPK in mammary tumor cells; type: cell-based; settings: MEK inhibitor treatment
Source text: Sgk/MAPK interactions: new level of cross talk between GR and phosphorylation cascades. We also observed that the enzymatic activity and subcellular localization of Sgk and the Erk1/Erk2 members of the Mitogen Activated Protein Kinase (MAPK) gene family are co-regulated in a stimulus-dependent manner. […] Wild type or kinase dead forms of Sgk can be co-immunoprecipitated with Erk/MAPK from either serum- or dexamethasone-treated mammary tumor cells. […] Conversely, the forced cellular localization of ectopically expressed Sgk into the nucleus, using the NLS-Sgk, or into the cytoplasmic compartment using the wild type sgk gene, caused Erk/MAPK to co-localize with Sgk.

Sgk promoter = experiment: Hyperosmotic stress stimulation of Sgk promoter and Sgk protein production; type: cell-based, mouse; settings: sorbitol hyperosmotic stress
Source text: Regulation of Sgk transcription, protein utilization and enzymatic activity defines a new cellular component of the hyperosmotic stress pathway. Using mouse NMuMg nontumorigenic mammary epithelial cells, we have established that Sgk is a new component of the hyperosmotic stress response. (The key observations can be repeated in HeLa cells, MCF-7 human breast cancer cells, kidney derived cell and rat fibroblasts). […] This hyperosmotic stress regulated element can confer the hyperosmotic stress response to a heterologous promoter. […] Using a generally similar series of experiments, we have also shown that exposure of mammary epithelial cells to 40 J/m^2 UV radiation causes a rapid but transient stimulation in Sgk protein levels that peaks approximately 2 hours after this genotoxic stress.
The hyperosmotic stress cascade targets the sgk promoter by activating the p38/MAPK stress kinase. […] Co-transfection of the stress responsive Sgk-CAT reporter plasmid with a dominant negative form of MKK3, one of two upstream kinase regulators of the p38/MAPK, inhibits the sorbitol induction of the Sgk promoter.

endogenous Sgk = experiment: Phosphorylation state of Sgk in treated cells; type: cell-based; settings: treatment of cells; serum stimulated mammary tumor cells for the PI 3-kinase inhibitors
Source text: (§1) Cotransfection of PDK1 with Sgk caused a 6-fold activation of Sgk activity, whereas, the kinase-dead form of PDK1 had no effect. […] The Ser-78 in the amino terminal domain is a third phosphorylation site and expression of the S78G Sgk mutation ablates the presence of the slowest migrating form of phosphorylated Sgk in SDS polyacrylamide gels.

Sgk = experiment: In vitro peptide kinase assay (Sgktide, [32P]ATP) of immunoprecipitated HA-Sgk; type: biochemical; settings: for effect of cell treatment on Sgk enzymatic activity: activators or inhibitor of PI 3-kinase pathway; for kinase activity / activation of Sgk mutant: mutant forms of Sgk
Source text: Sgk is a component of the PI3 kinase cascade and is directly activated by PDK1 mediated phosphorylation of threonine 256 in the activation loop. […] To develop this kinase assay, lysates from human embryo kidney 293 cells transfected to express wild type hemagglutinin (HA)-tagged Sgk (HA-Sgk) were isolated and the Sgk immunoprecipitated with HA antibodies was used to screen a synthetic peptide library for identifying potential Sgk substrates. The immunoprecipitates were extensively washed, and incubated with the peptide in the presence of [^32P]ATP in kinase buffer (Park et al 1999). Sgk phosphorylated several peptides, and the best substrate for Sgk was KKRNRRLSVA (SEQ ID NO:01), which is named Sgktide. […] This substrate specificity is generally similar to, but not identical, with the substrate specificity for Akt, which is a well characterized down stream component of the PI 3 kinase pathway.
as §1

mammary tumor cells = experiment: Transient cell foci growth assay of transfected mammary tumor cells; type: cell-based; settings: transfected expression vector
Source text: Functional evidence for a direct role of sgk in the glucocorticoid anti-proliferative pathway. In both the Con8 mammary epithelial tumor cells (from which Sgk was originally cloned) as well as human MCF-7 breast cancer cells (which were originally derived from a pleural effusion of a metastatic human breast adenocarcinoma) glucocorticoids induce a G1 block in cell cycle progression and strongly stimulate sgk transcript and protein production. […] To initially test whether Sgk has an anti-proliferative function and perhaps mediates the glucocorticoid growth inhibitory response, the full length rat or human wild type sgk cDNA was inserted downstream of the cytomegalovirus (CMV) promoter in an expression vector that also encodes the neomycin resistance gene. […] Transfection competent cells were selected in 0.5 mg/ml of the G418 neomycin derivative for two weeks.
Expression vectors encoding several point mutants or truncations of Sgk were transfected into the mammary tumor cells and cell growth monitored by the cell foci assay.
Transient transfection and rapid screen of the sgk expression vectors for the anti-proliferative response in rodent and human mammary tumor cells. A transient cell foci growth assay is employed to rapidly screen the various Sgk constructs to define the domains that mediate the anti-proliferative response in rat and human mammary tumor cells using our optimized conditions. The advantage of this assay is that many different mutant Sgk expression vectors can be simultaneously compared for their growth inhibitory effects. Also, this assay can be used to rapidly assess the proliferative effects of combinations of Sgk and its interacting proteins or substrates. Populations of human MCF-7 breast cancer cells or rat Con8 mammary tumor cells are transfected by the lipofectin transfection procedures and cultured in normally cytotoxic concentrations (750 μg/ml) of the G418 neomycin derivative to recover transfection competent cells. Approximately 5000 transfected cells are cultured as colonies on plastic, and after one to two weeks are fixed and stained in crystal violet/formalin to visualize the cell colonies. The effects on cell proliferation are quantitated by simply counting the resulting cell colonies or by scanning the total cell density on each plate. To provide a control for the fidelity of the cell foci assays, in each experiment, cells transfected with the control vectors (no Sgk sequences) are treated with or without 1 μM dexamethasone because the cells are growth suppressed by this synthetic glucocorticoid. […]

For `COc1cccc(-c2cc(=O)c3ccccc3o2)c1N` [PD98059], the “subcellular distribution of Sgk and Erk/MAPK” value (Sgk and Erk/MAPK) was “caused both Sgk and Erk/MAPK to localize to the cytoplasm”.

For `Oc1ccc(-c2nc(-c3ccncc3)c(-c3ccc(F)cc3)[nH]2)cc1` [SB202190], the “hyperosmotic stress-stimulation of the Sgk promoter and Sgk protein production” value (Sgk promoter) was “dampens the hyperosmotic stress-stimulation of the Sgk promoter and Sgk protein production”.

In the case of `C[S+]([O-])c1ccc(-c2nc(-c3ccncc3)c(-c3ccc(F)cc3)[nH]2)cc1` (centres unmarked) [SB203580], the “hyperosmotic stress-stimulation of the Sgk promoter and Sgk protein production” value (Sgk promoter) is reported as “dampens the hyperosmotic stress-stimulation of the Sgk promoter and Sgk protein production”.

In the case of `C=C1[C@@H](O)[C@@H]2O[C@]3(CC[C@H](/C=C/[C@@H](C)[C@@H]4CC(C)=C[C@@]5(O[C@H](C[C@@](C)(O)C(=O)O)CC[C@H]5O)O4)O3)CC[C@H]2O[C@@H]1[C@@H](O)C[C@H](C)[C@H]1O[C@@]2(CCCCO2)CC[C@H]1C` [okadaic acid], the “generation of hyperphosphorylated form of Sgk” value (endogenous Sgk) is reported as “generates a hyperphosphorylated active Sgk”.

For “IGF-1: hormonal activator of the PI 3-kinase pathway [reference compound]”, the “effect of cell treatment on Sgk enzymatic activity” value (“effect of cell treatment” for short) (Sgk) was “stimulated Sgk enzymatic activity”.

With “insulin: hormonal activator of the PI 3-kinase pathway [reference compound]” the “effect of cell treatment” value (Sgk) was “stimulated Sgk enzymatic activity”.

With pervanadate [reference compound] the “effect of cell treatment” value (Sgk) was “stimulated Sgk enzymatic activity”.

B1: N60–431: N-terminal truncated Sgk (protein, UniProt O00141 60-431, looked up, fragment)
chain: ISQPQEPELMNANPSPPPSPSQQINLGPSSNPHAKPSDFHFLKVIGKGSFGKVLLARHKAEEVFYAVKVLQKKAILKKKEEKHIMSERNVLLKNVKHPFLVGLHFSFQTADKLYFVLDYINGGELFYHLQRERCFLEPRARFYAAEIASALGYLHSLNIVYRDLKPENILLDSQGHIVLTDFGLCKENIEHNSTTSTFCGTPEYLAPEVLHKQPYDRTVDWWCLGAVLYEMLYGLPPFYSRNTAEMYDNILNKPLQLKPNITNSARHLLEGLLQKDRTKRLGAKDDFMEIKSHVFFSLINWDDLINKKITPPFNPNVSGPNDLRHFDPEFTEEPVPNSIGKSPDSVLVTASVKEAAEAFLGFSYAPPTDSFL
With B1 the “effect on cell growth (cell foci assay)” value (mammary tumor cells) was “more effectively suppresses tumor cell growth compared to the full length Sgk protein”.

B2: T256D/S422D: Sgk double mutation T256D and S422D (protein, UniProt O00141 1-431, looked up, variant T256D S422D)
Serine/threonine-protein …: MTVKTEAAKGTLTYSRMRGMVAILIAFMKQRRMGLNDFIQKIANNSYACKHPEVQSILKISQPQEPELMNANPSPPPSPSQQINLGPSSNPHAKPSDFHFLKVIGKGSFGKVLLARHKAEEVFYAVKVLQKKAILKKKEEKHIMSERNVLLKNVKHPFLVGLHFSFQTADKLYFVLDYINGGELFYHLQRERCFLEPRARFYAAEIASALGYLHSLNIVYRDLKPENILLDSQGHIVLTDFGLCKENIEHNSTTSDFCGTPEYLAPEVLHKQPYDRTVDWWCLGAVLYEMLYGLPPFYSRNTAEMYDNILNKPLQLKPNITNSARHLLEGLLQKDRTKRLGAKDDFMEIKSHVFFSLINWDDLINKKITPPFNPNVSGPNDLRHFDPEFTEEPVPNSIGKSPDSVLVTASVKEAAEAFLGFDYAPPTDSFL
For B2, the “kinase activity / activation of Sgk mutant” value (“kinase activity / activation” for short) (Sgk) was “not constitutively active”.

B3: S422A: Sgk with serine 422 changed to alanine (protein, UniProt O00141 1-431, looked up, variant S422A)
Serine/threonine-protein …: B2 Serine/threonine-protein … with D256T, D422A
In the case of B3, the “kinase activity / activation” value (Sgk) is reported as “inhibited Sgk activation”.

B4: T256D: Sgk with threonine 256 changed to aspartate (protein, UniProt O00141 1-431, looked up, variant T256D)
Serine/threonine-protein …: B2 Serine/threonine-protein … with D422S
In the case of B4, the “kinase activity / activation” value (Sgk) is reported as “partially active”.

B5: T256A: Sgk with threonine 256 in the activation loop changed to alanine (protein, UniProt O00141 1-431, looked up, variant T256A)
Serine/threonine-protein …: B2 Serine/threonine-protein … with D256A, D422S
For B5, the “reduction in number of cell foci compared to the vector control” value (mammary tumor cells; G418 selection) was 20 fold.

B6: S422D: Sgk with serine 422 changed to aspartate (protein, UniProt O00141 1-431, looked up, variant S422D)
Serine/threonine-protein …: B2 Serine/threonine-protein … with D256T
For B6, the “kinase activity / activation” value (Sgk) was “partially active”.

B7: C1–355: C-terminal Sgk truncation missing the last 75 amino acids (protein, UniProt O00141 1-355, looked up, fragment)
chain: MTVKTEAAKGTLTYSRMRGMVAILIAFMKQRRMGLNDFIQKIANNSYACKHPEVQSILKISQPQEPELMNANPSPPPSPSQQINLGPSSNPHAKPSDFHFLKVIGKGSFGKVLLARHKAEEVFYAVKVLQKKAILKKKEEKHIMSERNVLLKNVKHPFLVGLHFSFQTADKLYFVLDYINGGELFYHLQRERCFLEPRARFYAAEIASALGYLHSLNIVYRDLKPENILLDSQGHIVLTDFGLCKENIEHNSTTSTFCGTPEYLAPEVLHKQPYDRTVDWWCLGAVLYEMLYGLPPFYSRNTAEMYDNILNKPLQLKPNITNSARHLLEGLLQKDRTKRLGAKDDFMEIKSHVFF
B7 was tested, and the “effect on cell growth (cell foci assay)” value (mammary tumor cells) was “little or no effect on cell growth”.
